Our source for the IC50 and Kd values is patent US20230096028A1, “BICYCLIC HETEROCYCLYL COMPOUNDS AND USES THEREOF” (Revolution Medicines, Inc., priority 2019, published 2023).

In one assay the target is T1, SOS1 (Homo sapiens, UniProt Q07889).
T1 construct: SOS1 (Cytoskeleton Inc., Cat. CS-GE02); purchased Cytoskeleton Inc. CS-GE02
T1 sequence (Q07889 564-1049 limits assumed): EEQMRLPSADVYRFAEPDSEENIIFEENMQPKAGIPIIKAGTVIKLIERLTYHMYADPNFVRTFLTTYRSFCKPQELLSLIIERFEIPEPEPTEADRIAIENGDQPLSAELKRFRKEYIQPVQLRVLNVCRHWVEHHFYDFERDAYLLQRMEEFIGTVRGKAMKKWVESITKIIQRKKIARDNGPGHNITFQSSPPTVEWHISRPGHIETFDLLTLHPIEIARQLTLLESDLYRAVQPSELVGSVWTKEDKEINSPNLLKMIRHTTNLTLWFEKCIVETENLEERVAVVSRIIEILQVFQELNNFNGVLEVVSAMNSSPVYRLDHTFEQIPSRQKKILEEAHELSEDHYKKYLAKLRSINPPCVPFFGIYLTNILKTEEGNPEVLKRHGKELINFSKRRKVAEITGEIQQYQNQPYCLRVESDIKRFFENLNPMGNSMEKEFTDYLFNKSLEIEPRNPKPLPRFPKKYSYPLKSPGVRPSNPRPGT
The experiment in a line: Bodipy-FL-GTP Association Assay (SOS1-mediated exchange of KRAS-4B:GDP to KRAS-4B:GTP). The format is biochemical. The conditions noted are these: SOS1-mediated BODIPY FL GTP exchange on KRAS-4B, 22° C. The method, then:
A low IC50 value for a given compound is indicative of high potency of said compound in inhibiting the guanine nucleotide exchange factor (GEF) activity of SOS1 on KRAS-4B in this assay setting.
Reagents: BODIPY FL GTP (ThermoFisher Scientific, Cat. G12411); KRAS4-B (Cytoskeleton Inc., Cat. CSRS03); SOS1 (Cytoskeleton Inc., Cat. CS-GE02); 2×Assay Buffer: 40 mM Tris-HCl, pH 7.5; 100 mM NaCl; 20 mM MgCl2; 0.1 mg/mL BSA; 0.02% NP-40
Assay Procedure: Test compounds were dissolved in DMSO to create 20 mM master stocks. The stocks were diluted in a 3× dilution series in 100% DMSO to achieve 100× compound stocks. A 1 μl spot of each test compound stock was delivered to two adjacent wells of a 96-well assay plate prior to running the assay. Reaction Mix preparation: The following were mixed in order at room temperature to obtain the “Reaction Mix” (5.75 mL 2× Exchange Buffer; 3.22 mL MilliQ ddH2O; 3 μL 5 mM BODIPY FL GTP; 230 μL 50 μM KRAS-4B; 9.203 mL Total volume. Reaction initiation: 80 μL of Reaction Mix was pipetted into each well of a half-area black 96-well plate (Corning, Cat. 3686) containing either a 1 μL spot of DMSO or a 1 μL spot test compound at the concentrations listed above. 20 μL of 1 μM SOS1 was then added to each well to initiate the reaction. For the no GEF control wells this was replaced with 1× exchange buffer. Kinetic measurement: The reaction was monitored in a SpectraMax M2 Microplate Reader (Molecular Devices) under the following protocol: 5 second rapid circular mixing before first read; 61 readings, 30 seconds apart; Assay temperature: 22° C.; Excitation wavelength: 485 nm; Emission wavelength: 513 nm. Data Analysis: The Vmax values for the SOS1-mediated BODIPY FL GTP exchange curves in the presence of test compounds were normalized to the most dilute test sample columns or DMSO only control wells to give the % Activity for each concentration of test compound. Plots of % Activity vs. the Log 10 of the compound concentration were fit by non-linear regression to a 4-parameter logistic model.

In assay [1] the test system is PC-9 cells (EGFR Ex19Del). The experiment in a line: Potency Assay: pERK (SOS1 pERK IC50 Assay, AlphaLISA SureFire Ultra p-ERK1/2). The format is cell-based. The settings on record: Homo sapiens; PC-9 cells (EGFR Ex19Del), 1 hour incubation, AlphaLISA p-ERK1/2; read-out: SOS1 pERK IC50. Put shortly: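 Cellular pERK1/2 by AlphaLISA SureFire Ultra after 1 h compound exposure (37° C., highest concentration 10 μM, 3-fold steps, duplicates) of EGFR Ex19Del PC-9 cells seeded the day before. A 4-parameter fit of signal versus log concentration gives IC50.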

Assay [2] addresses T2, SOS1 catalytic domain (residues 564-1049) (Homo sapiens, UniProt Q07889).
T2 sequence (Q07889 564-1049): T1 sequence (Q07889 564-1049 limits assumed)
Put plainly: Potency Assay: binding affinity to SOS1 using Surface Plasmon Resonance (SPR). Set-up: SOS1 catalytic domain (residues 564-1049) immobilized on a sensor chip. The settings on record: immobilized SOS1 catalytic domain (residues 564-1049), read-out: SOS1 SPR Equilibrium Kd. Put shortly: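 Kd was obtained by plotting binding response, taken just before association ended, versus compound concentration on a Biacore 8K. Compounds flowed at 50 μL/min over streptavidin-captured avi-SOS1 catalytic domain (~6000 RU), followed by buffer dissociation; HEPES 0.01 M/NaCl 0.15 M/0.05% P20 buffer, double-referenced.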

In assay [3] the target is T2, SOS1 catalytic domain (residues 564-1049). The experiment in a line: Mode of Action Assay: inhibition of SOS1 nucleotide exchange activity (SOS1 TR-FRET IC50 Assay). In general terms: In TR-FRET formats the signal depends on donor and acceptor labels being close together.

pIC50, pKd: −log10 of the molar value.

Consider `C[C@@H](Nc1nc(Cl)nc2c1CN([C@H]1CC[C@@H](O)CC1)C2)c1cc(N)cc(C(F)(F)F)c1` [Example 8, cis-4-(4-{[(1R)-1-[3-amino-5-(trifluoromethyl)phenyl]ethyl]amino}-2-chloro-5H,6H,7H-pyrrolo[3,4-d]pyrimidin-6-yl)cyclohexan-1-ol], for which, on SOS1, the pIC50 (usually the negative decadic logarithm of the IC50, by convention in mol/L) is < 5.30.
The compound `C[C@@H](Nc1nc(Cl)nc2c1CCN(CC1CCOC1)CC2)c1cc(N)cc(C(F)(F)F)c1` (some centres unmarked) [Example 11] gave a pIC50 against SOS1 of 5.30 to 6.00.
Take `C[C@@H](Nc1nc(Cl)nc2c1CN([C@H]1CC[C@H](O)CC1)C2)c1cc(N)cc(C(F)(F)F)c1` [Example 9, trans-4-(4-{[(1R)-1-[3-amino-5-(trifluoromethyl)phenyl]ethyl]amino}-2-chloro-5H,6H,7H-pyrrolo[3,4-d]pyrimidin-6-yl)cyclohexan-1-ol]: the pIC50 against SOS1 was < 5.30.
The compound `C[C@@H](Nc1nc(Cl)nc2c1CCN(C(=O)C1CCOC1)CC2)c1cc(N)cc(C(F)(F)F)c1` (stereo partly drawn) [Example 7, N-[(1R)-1-[3-amino-5-(trifluoromethyl)phenyl]ethyl]-2-chloro-7-(oxolane-3-carbonyl)-5H,6H,7H,8H,9H-pyrimido[4,5-d]azepin-4-amine] showed a pIC50 at SOS1 of 5.30 to 6.00.
On to `COc1nc2c(c(N[C@H](C)c3cc(N)cc(C(F)(F)F)c3)n1)CN(C(=O)N1CCOCC1)C2` [Example 14], for which the negative logarithm of the IC50 (pIC50) on SOS1 was > 6.00.
Consider `Cc1nc2c(c(N[C@H](C)c3cc(N)cc(C(F)(F)F)c3)n1)CN(C(=O)N1CCOCC1)C2` [Example 4, N-[(1R)-1-[3-amino-5-(trifluoromethyl)phenyl]ethyl]-2-methyl-6-(morpholine-4-carbonyl)-5H,6H,7H-pyrrolo[3,4-d]pyrimidin-4-amine], for which, on SOS1, the pIC50 is > 6.00.
`Cc1nc2c(c(N[C@H](C)c3cc(N)cc(C(F)(F)F)c3)n1)CN(C(=O)C1CCN(C)CC1)C2` [Example 21]: at SOS1, the pIC50 is > 6.00.
`C[C@@H](Nc1nc(Cl)nc2c1CN(C(=O)N1CCOCC1)CC2)c1cc(N)cc(C(F)(F)F)c1` [Example 3, N-[(1R)-1-[3-amino-5-(trifluoromethyl)phenyl]ethyl]-2-chloro-6-(morpholine-4-carbonyl)-5H,6H,7H,8H-pyrido[4,3-d]pyrimidin-4-amine]: at SOS1, the pIC50 is > 6.00.
Take `C[C@@H](Nc1nc(Cl)nc2c1CN(C(=O)C1CCOC1)C2)c1cc(N)cc(C(F)(F)F)c1` (stereo partly drawn) [Example 5, N-[(1R)-1-[3-amino-5-(trifluoromethyl)phenyl]ethyl]-2-chloro-6-(oxolane-3-carbonyl)-5H,6H,7H-pyrrolo[3,4-d]pyrimidin-4-amine]: the pIC50 on SOS1 is > 6.00.
Compound `Cc1nc2c(c(N[C@H](C)c3cc(N)cc(C(F)(F)F)c3)n1)CN(CC1CCOC1)C2` (some centres unmarked) [Example 13] had a negative-log IC50 (pIC50) on SOS1 of 5.30 to 6.00.
Take `Cc1nc2c(c(N[C@H](C)c3cc(N)cc(C(F)(F)F)c3)n1)CN(C(=O)N1CCOCC1)CC2` [Example 2, N-[(1R)-1-[3-amino-5-(trifluoromethyl)phenyl]ethyl]-2-methyl-6-(morpholine-4-carbonyl)-5H,6H,7H,8H-pyrido[4,3-d]pyrimidin-4-amine]: on SOS1, the pIC50 is 5.30 to 6.00.
For the compound `C[C@@H](Nc1nc(Cl)nc2c1CN([C@H]1CC[C@@H](C(=O)N(C)C)CC1)C2)c1cc(N)cc(C(F)(F)F)c1` [Example 10, cis-4-(4-{[(1R)-1-[3-amino-5-(trifluoromethyl)phenyl]ethyl]amino}-2-chloro-5H,6H,7H-pyrrolo[3,4-d]pyrimidin-6-yl)-N,N-dimethylcyclohexane-1-carboxamide], on SOS1, the negative logarithm of the IC50 (pIC50) is 5.30 to 6.00.
Take `C[C@@H](Nc1nc(Cl)nc2c1CN(CC1CCOC1)C2)c1cc(N)cc(C(F)(F)F)c1` (some centres unmarked) [Example 20]: the pIC50 on SOS1 is > 6.00.
`C[C@@H](Nc1ncnc2c1CN(C(=O)C1CCN(C)CC1)C2)c1cc(N)cc(C(F)(F)F)c1` [Example 17]: at SOS1, the negative-log IC50 (pIC50) was > 6.00.
`C[C@@H](Nc1nc(O)nc2c1CN(C(=O)N1CCOCC1)C2)c1cc(N)cc(C(F)(F)F)c1` [Example 15] showed a pIC50 at SOS1 of 5.30 to 6.00.
Turning to `C[C@@H](Nc1nc(Cl)nc2c1CN(C(=O)N1CCOCC1)C2)c1cc(N)cc(C(F)(F)F)c1` [Example 1, N-[(1R)-1-[3-amino-5-(trifluoromethyl)phenyl]ethyl]-2-chloro-6-(morpholine-4-carbonyl)-5H,6H,7H-pyrrolo[3,4-d]pyrimidin-4-amine], the pIC50 on SOS1 was > 6.00.
`C[C@@H](Nc1nc(Cl)nc2c1CN(C(=O)C1CCN(C)CC1)C2)c1cc(N)cc(C(F)(F)F)c1` [Example 18]: the pIC50 on SOS1 is > 6.00.
Same read-out and setting: for `C[C@@H](Nc1ncnc2c1CN(C(=O)N1CCOCC1)C2)c1cc(N)cc(C(F)(F)F)c1` [Example 16] the value was > 6.00; for `Cc1nc2c(c(N[C@H](C)c3cc(N)cc(C(F)(F)F)c3)n1)CN(C(=O)[C@H]1CCOC1)CC2` [Example 6, N-[(1R)-1-[3-amino-5-(trifluoromethyl)phenyl]ethyl]-2-methyl-6-(oxolane-3-carbonyl)-5H,6H,7H,8H-pyrido[4,3-d]pyrimidin-4-amine], 5.30 to 6.00; for `C[C@@H](Nc1nc(Cl)nc2c1CN([C@H]1CC[C@H](C(=O)N(C)C)CC1)C2)c1cc(N)cc(C(F)(F)F)c1` [Example 19], 5.30 to 6.00.
In the case of `C[C@@H](Nc1nc(C2CN(C)C2)nc2c1CN(C(=O)N1CCOCC1)C2)c1cccc(C(F)F)c1F` [Example 447, (R)-(4-((1-(3-(difluoromethyl)-2-fluorophenyl)ethyl)amino)-2-(1-methylazetidin-3-yl)-5,7-dihydro-6H-pyrrolo[3,4-d]pyrimidin-6-yl)(morpholino)methanone], the results for the pIC50 in assay [1] and in assay [3] were < 6.00 and > 6.00, respectively. For the same compound, the pKd (in general, the negative decadic logarithm of the Kd, by convention in mol/L) in assay [2] is > 6.40.
`COC(=O)N1C[C@@H]2COC[C@]2(C(=O)N2CCc3nc(Cl)nc(N[C@H](C)c4cc(N)cc(C(F)(F)F)c4)c3C2)C1` [Example 221]: the pIC50 in assay [1] was < 6.00; in assay [3], > 6.00. Moreover, in assay [2], the pKd is < 6.40.
Regarding `COC1(C(=O)N2Cc3nc(Cl)nc(N[C@H](C)c4cccc(C(F)F)c4F)c3C2)CCN(C2COC2)CC1` [Example 325], the pIC50 in assay [1] and in assay [3] was > 6.00 each time. For the same compound, the pKd in assay [2] is > 6.40.
In the case of `C[C@@H](Nc1nc(Cl)nc2c1CN(C(=O)N1CCOCC1)C2)c1cccc(C(F)(F)C2CCCO2)c1` (some centres unmarked) [Example 491], the pIC50 in assay [1] and in assay [3] was > 6.00 in each case. For the same compound, in assay [2], the pKd was > 6.40.
For the compound `COC1(C(=O)N2Cc3nc(Cl)nc(N[C@H](C)c4cccc(C(F)F)c4F)c3C2)CCNCC1` [Example 310], the pIC50 in assay [1] and in assay [3] was > 6.00 throughout. Besides, the pKd in assay [2] is > 6.40.
Consider `C[C@@H](Nc1nc(Cl)nc2c1CN(C(=O)C1(N)CCOCC1)C2)c1cccc(C(F)F)c1F` [Example 287], for which the pIC50 in assay [1] and in assay [3] was > 6.00 in each case. The pKd in assay [2] was > 6.40.
